Legend:
anti-CD19 CAR T cells [1] = experiment: Cell cycle phase (EdU incorporation) of stimulated anti-CD19 CAR T cells; assay type: cell-based, human; conditions: for percentage of cells in G1 phase: P<0.001
Protocol: (§1) Anti-CD19 CAR-expressing T cell compositions were generated from three different healthy donors as described in Example 1. Prior to use, cryopreserved CD4+ and CD8+ engineered cell compositions were thawed and combined at approximately a 1:1 CD4:CD8 ratio.
(§2) Following incubation, stimulated CAR T cells were harvested, washed twice in media, and assessed.
The cell cycle phases of CAR T cells treated with the compounds during CAR-specific stimulation with the plate-bound anti-idiotypic antibody were determined using EDU incorporation for two hours after three days of stimulation. For EDU incorporation, CAR T cells were labeled using the Click-iT™ EdU Cell Proliferation Kit (Thermo Fisher Scientific), after which the prepared cells were analyzed by flow cytometry. […] Without wishing to be bound by theory, the accumulation of CAR T cells in G1 phase may account for one of the mechanisms by which the compounds can limit onset of exhaustion during chronic stimulation, as shown in Example 3 below.

anti-CD19 CAR T cells [2] = experiment: Intracellular cytokine levels in stimulated anti-CD19 CAR T cells; assay type: cell-based, human; conditions: 72 hours, 30 μg/mL anti-idiotypic antibody
Protocol: as §1, §2
Intracellular cytokine levels in CAR T cells that had been stimulated for 72 hours with 30 μg/mL of anti-idiotypic antibody were determined. To do so, supernatants were collected from the stimulated CAR T cells and were analyzed for interferon-γ (IFN-γ) and interleukin-2 (IL-2) content using a multiplex electrochemiluminescence assay. To stain for intracellular cytokines, including Perforin and Granzyme B, cells were fixed and permeabilized using a Foxp3/Transcription Factor Staining Buffer Set (Thermo Fisher Scientific). Intracellular cytokine levels of IFNγ, perforin, granzyme B, and IL-2 were then determined by flow cytometry. […] Log2 fold-change values greater than zero are indicated with a “+” in FIG. 2F. Similar results were observed when measuring the percentage of cells positive for the cytokines.

[3] = test system: Granta-519 lymphoma tumor spheroids; experiment: Chronic stimulation with concurrent treatment, re-challenge with tumor spheroids; assay type: cell-based
Protocol: (§3) To simulate conditions of chronic stimulation, anti-CD19 CAR-expressing T cells, produced as described in Example 1, were incubated with plate-bound CAR-specific anti-idiotypic antibody (see, e.g., WO2018/023100) and incubated at 37° C. for a period of six days. […] For instance, CAR T cells that were re-challenged with CD19+ tumor cells following the six-day stimulation had reduced IFNγ and IL-2 cytokine production (FIG. 3A) and reduced cytolytic function (FIG. 3B) compared to freshly thawed CAR T cells not subjected to the six-day stimulation.
(§4) The ability of Compound C to block or reduce this CAR T cell hypofunctionality following chronic stimulation was assessed. To do so, engineered CAR T cells were concurrently treated with Compound C, Compound 2, or a vehicle control during the six-day stimulation. Stimulated CAR T cells were then harvested, washed twice in media, and re-challenged with Granta-519 lymphoma tumor spheroids (that had been transduced with IncuCyte NucLight Red) in the absence of Compound C, after which cytolytic activity was assessed by loss of red fluorescence over time and averaged measurement of tumor spheroid size at various times following co-culture with CAR-T cells. Cytokine production, Ikaros expression, and gene expression of the CAR T Cells also were assessed.
FIGS. 3D and 3E show the volume of tumor spheroids co-cultured with CAR T cells that were stimulated in the presence of Compound C after chronic stimulation. As shown in FIG. 3D and FIG. 3E, cytolytic activity during re-challenge was improved by treatment with Compound C at a 1 nM concentration during stimulation (**** P<0.0001).

[4] = test system: Granta-519 lymphoma tumor spheroids; experiment: Concentration levels: tumor cell number during re-challenge, concurrent or rescue treatment; assay type: cell-based
Protocol: Different concentrations of Compound C were tested for their effects on cytolytic function of CAR T cells following chronic stimulation. CAR T cells were treated with various concentrations of Compound C either during or after chronic stimulation.
Anti-CD19 CAR-expressing T cells, produced as described in Example 1, were chronically stimulated as described in Example 3 (with Compound C present during chronic stimulation), then re-challenged with Granta-519 lymphoma tumor spheroids in the absence of Compound C (concurrent treatment group). In addition, anti-CD19 CAR-expressing T cells were chronically stimulated as described in Example 4 (with Compound C absent during chronic stimulation), then re-challenged with Granta-519 lymphoma tumor spheroids in the presence of Compound C (rescue treatment group). During re-challenge, cytolytic activity was assessed by tumor cell number at various times during co-culture with CAR-T cells.
In both treatment conditions, tumor cell number was reduced compared to control conditions for CAR T cells treated with Compound C at a 0.001 μM concentration. Also in both treatment groups, tumor cell number was higher compared to control conditions for CAR T cells treated with Compound C at 0.01 μM and 0.1 μM concentrations.

anti-CD19 CAR T cells [5] = experiment: Viability of anti-CD19 CAR T cells stimulated with anti-idiotypic antibody (live/dead dye); assay type: cell-based, human; conditions: Day 3 of culture; 3 or 30 μg/mL anti-idiotypic antibody; three donors
Protocol: as §1, §2
Viability was assessed at Day 3 of culture by flow cytometry using a live/dead cell dye. As shown in FIG. 2A for the three donors (mean±SEM), the compounds had no effect on cell viability when stimulation was carried out either with 3 μg/mL of anti-idiotypic antibody (left panel) or with 30 μg/mL of anti-idiotypic antibody (right panel).

Ikaros = biological target: T1, Ikaros (Homo sapiens, UniProt Q13422+Q96SW2); experiment: Ikaros expression in CAR T cells after six days of chronic stimulation (MFI); assay type: cell-based; conditions: higher concentrations (e.g., 0.01 μM and 0.1 μM); compared with Compound 2
T1 construct: analyzed by flow cytometry to assess intracellular levels of Ikaros and Aiolos in CAR+ T cells; endogenous in cells; host or cells: primary human CD4+ and CD8+ T cells from healthy donors, lentivirally transduced with an anti-CD19 CAR
Protocol: as §3
as §4, with “were assessed. […]” for “were assessed.”

T1 sequence (Q13422 whole entry): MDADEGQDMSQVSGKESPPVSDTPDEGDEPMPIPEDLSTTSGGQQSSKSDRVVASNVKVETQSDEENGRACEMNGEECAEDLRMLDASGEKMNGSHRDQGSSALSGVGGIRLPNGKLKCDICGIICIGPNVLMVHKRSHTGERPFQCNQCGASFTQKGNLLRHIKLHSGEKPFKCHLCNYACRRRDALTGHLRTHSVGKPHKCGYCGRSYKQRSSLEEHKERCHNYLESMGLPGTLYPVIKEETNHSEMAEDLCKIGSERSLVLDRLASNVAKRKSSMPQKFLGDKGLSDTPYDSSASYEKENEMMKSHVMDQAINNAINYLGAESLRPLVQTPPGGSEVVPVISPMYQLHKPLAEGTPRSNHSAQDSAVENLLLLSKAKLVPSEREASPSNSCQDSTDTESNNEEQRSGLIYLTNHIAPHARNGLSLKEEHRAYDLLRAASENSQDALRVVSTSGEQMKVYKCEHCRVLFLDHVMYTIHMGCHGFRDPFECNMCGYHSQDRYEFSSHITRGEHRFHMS
T1 sequence (Q96SW2 whole entry): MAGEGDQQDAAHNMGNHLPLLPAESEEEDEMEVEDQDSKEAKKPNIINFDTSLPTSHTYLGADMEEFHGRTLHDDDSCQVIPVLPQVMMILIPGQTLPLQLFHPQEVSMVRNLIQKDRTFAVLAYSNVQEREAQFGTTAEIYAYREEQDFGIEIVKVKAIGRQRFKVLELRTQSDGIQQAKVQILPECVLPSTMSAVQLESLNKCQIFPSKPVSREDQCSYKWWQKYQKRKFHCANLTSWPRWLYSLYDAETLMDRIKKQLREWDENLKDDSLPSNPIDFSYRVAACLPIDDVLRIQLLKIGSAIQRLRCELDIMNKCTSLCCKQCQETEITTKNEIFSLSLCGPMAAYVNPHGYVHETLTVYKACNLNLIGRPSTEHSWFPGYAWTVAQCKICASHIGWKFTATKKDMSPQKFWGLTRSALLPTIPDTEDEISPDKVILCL
T1 sequence (Q16531 whole entry partner): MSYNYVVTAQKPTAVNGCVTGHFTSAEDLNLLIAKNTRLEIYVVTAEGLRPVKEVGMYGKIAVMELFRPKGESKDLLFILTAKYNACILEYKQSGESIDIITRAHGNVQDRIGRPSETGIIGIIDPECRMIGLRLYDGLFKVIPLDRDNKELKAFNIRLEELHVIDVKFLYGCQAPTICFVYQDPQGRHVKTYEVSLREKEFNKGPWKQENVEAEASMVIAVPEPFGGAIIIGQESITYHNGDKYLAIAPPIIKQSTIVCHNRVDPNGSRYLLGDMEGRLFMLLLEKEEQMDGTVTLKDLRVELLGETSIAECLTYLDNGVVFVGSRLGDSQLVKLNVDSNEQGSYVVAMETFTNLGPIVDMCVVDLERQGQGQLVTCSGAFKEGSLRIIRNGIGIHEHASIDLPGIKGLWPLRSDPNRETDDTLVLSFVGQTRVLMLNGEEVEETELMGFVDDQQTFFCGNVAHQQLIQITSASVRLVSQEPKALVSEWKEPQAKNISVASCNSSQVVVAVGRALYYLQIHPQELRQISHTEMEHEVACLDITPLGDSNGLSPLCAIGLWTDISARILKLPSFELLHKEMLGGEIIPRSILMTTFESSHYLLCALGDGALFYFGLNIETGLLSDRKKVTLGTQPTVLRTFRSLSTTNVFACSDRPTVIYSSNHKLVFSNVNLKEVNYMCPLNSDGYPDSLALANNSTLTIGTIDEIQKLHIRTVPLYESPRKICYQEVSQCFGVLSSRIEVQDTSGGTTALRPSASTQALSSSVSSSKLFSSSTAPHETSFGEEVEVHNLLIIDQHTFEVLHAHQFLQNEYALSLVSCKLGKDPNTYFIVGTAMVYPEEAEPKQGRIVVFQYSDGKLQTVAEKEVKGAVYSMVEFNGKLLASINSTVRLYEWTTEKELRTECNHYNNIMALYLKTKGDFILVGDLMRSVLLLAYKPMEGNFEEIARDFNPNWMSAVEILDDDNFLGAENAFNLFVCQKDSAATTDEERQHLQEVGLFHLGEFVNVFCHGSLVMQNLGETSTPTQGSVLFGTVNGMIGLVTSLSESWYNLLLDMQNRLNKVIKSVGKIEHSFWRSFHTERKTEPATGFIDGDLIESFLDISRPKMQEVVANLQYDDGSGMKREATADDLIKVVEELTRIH

Compound: O=C1CC[C@H](N2C(=O)c3cccc(NCc4ccc(CN5CC(N6CCOCC6)C5)cc4F)c3C2=O)C(=O)N1 [Compound C, (S)-2-(2,6-dioxopiperidin-3-yl)-4-((2-fluoro-4-((3-morpholinoazetidin-1-yl)methyl)benzyl)amino)isoindoline-1,3-dione]
- dose with similar effects on percentage of cells in G1 phase, compared to the other compounds tested (anti-CD19 CAR T cells [1]): ten- or hundred-fold lower dose
- percentage of cells in G1 phase (anti-CD19 CAR T cells [1]; 1 nM): increased
- percentage of cells in G1 phase (anti-CD19 CAR T cells [1]; 10 nM): increased
- effect on percentage of cells in G1 phase compared with the other compounds (anti-CD19 CAR T cells [1]; at all doses tested): most effect on the percentage of cells in G1 phase
- intracellular expression of effector cytokines (IFNγ, perforin, granzyme B), fold change in MFI vs vehicle (anti-CD19 CAR T cells [2]): increased production of certain cytokines
- IFNγ production in supernatant five days after re-challenge ([3]; 1 nM concurrently during chronic stimulation, P<0.0001): improved IFNγ production
- cytolytic activity during re-challenge (tumor spheroid volume) ([3]; 1 nM during six-day chronic stimulation (concurrent), P<0.0001): improved
- IFNγ production in supernatant five days after re-challenge ([3]; 10 nM during chronic stimulation, P<0.001, lesser extent than 1 nM): increased IFNγ production
- tumor size at day 9 of co-culture ([3]; 10 nM during six-day chronic stimulation (concurrent), P<0.05, lesser extent than 1 nM): reduced tumor size
- tumor cell number compared to control conditions ([4]; concurrent treatment, 0.001 μM): reduced
- tumor cell number compared to control conditions ([4]; concurrent treatment, 0.01 μM): higher
- tumor cell number compared to control conditions ([4]; concurrent treatment, 0.1 μM): higher
- tumor cell number compared to control conditions ([4]; rescue treatment, 0.001 μM): reduced
- tumor cell number compared to control conditions ([4]; rescue treatment, 0.01 μM): higher
- tumor cell number compared to control conditions ([4]; rescue treatment, 0.1 μM): higher
- cell viability (percentage of live CAR T cells) (anti-CD19 CAR T cells [5]): without affecting CAR T cell viability
- Ikaros expression (MFI) after six days of chronic stimulation (Ikaros): lowest
